The target in test [1] is D(1A) dopamine receptor (Rattus norvegicus) (UniProt P18901). Kind of test: Tested for its affinity towards Dopamine receptor D1 in rat striatal membrane. The following applies: Striatum. Type of test: cell membranes.
For test [2], the species on record is Rattus norvegicus. In words: Tested effective dose for maximal stimulation of adenylate cyclase in rat striatal membrane. As to conditions: Striatum. The class given is functional.
For test [3], the target named is D(1A) dopamine receptor (Rattus norvegicus) (UniProt P18901).
The target in test [4] is D(2) dopamine receptor (Homo sapiens) (UniProt P14416).
Sequence of D(2) dopamine receptor (Homo sapiens) (P14416 whole entry): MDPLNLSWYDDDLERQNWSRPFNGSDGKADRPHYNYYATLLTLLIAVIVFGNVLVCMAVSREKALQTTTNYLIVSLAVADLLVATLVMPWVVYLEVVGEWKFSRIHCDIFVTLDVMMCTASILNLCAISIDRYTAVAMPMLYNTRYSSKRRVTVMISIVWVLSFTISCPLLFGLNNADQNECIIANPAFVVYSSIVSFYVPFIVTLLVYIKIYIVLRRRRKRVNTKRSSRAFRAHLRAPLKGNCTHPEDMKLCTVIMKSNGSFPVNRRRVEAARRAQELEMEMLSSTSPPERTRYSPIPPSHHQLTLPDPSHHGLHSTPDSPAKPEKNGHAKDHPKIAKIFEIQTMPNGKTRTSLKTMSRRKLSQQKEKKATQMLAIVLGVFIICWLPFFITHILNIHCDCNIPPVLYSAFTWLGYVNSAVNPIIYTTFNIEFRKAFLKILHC
Description: Tested for binding affinity towards D2 receptor labelled by [3H]- spiperone as radioligand

Sequence of D(1A) dopamine receptor (Rattus norvegicus) (P18901 whole entry): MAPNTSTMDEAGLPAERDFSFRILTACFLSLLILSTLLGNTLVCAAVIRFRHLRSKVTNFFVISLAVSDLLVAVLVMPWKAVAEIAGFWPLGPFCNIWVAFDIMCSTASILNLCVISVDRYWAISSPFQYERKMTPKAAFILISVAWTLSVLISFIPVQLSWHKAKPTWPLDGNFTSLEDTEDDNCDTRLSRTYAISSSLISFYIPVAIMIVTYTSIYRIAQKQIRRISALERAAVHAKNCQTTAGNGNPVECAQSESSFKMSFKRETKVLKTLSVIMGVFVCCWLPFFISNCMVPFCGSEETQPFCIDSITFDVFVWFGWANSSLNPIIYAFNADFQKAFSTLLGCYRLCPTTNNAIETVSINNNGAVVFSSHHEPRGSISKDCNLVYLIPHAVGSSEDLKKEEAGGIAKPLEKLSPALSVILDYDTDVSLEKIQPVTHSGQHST

The compound `CN1Cc2ccccc2[C@@H]2c3cccc4[nH]cc(c34)C[C@H]21` had a pD2 in test [1] of 6.1.

With `Oc1cc2c(cc1O)[C@H]1c3ccccc3CN[C@@H]1CC2` (racemic), the Stimulation in test [2] was 95%. The compound further yielded a K0.5 in test [3] of 11.6 nM.

In turn, `Oc1cc2c(cc1O)[C@H]1c3ccccc3CN[C@@H]1CC2` (stereo in doubt; (+)-2) came in with a Stimulation in test [2] of 105%. Moreover, the K0.5 was found to be 87.7 nM in test [4] and 5.6 nM in test [3].

`Oc1cc2c(cc1O)[C@H]1c3ccccc3CN[C@@H]1CC2` (stereo in doubt; (-)-2): the K0.5 in test [3] was determined as 149 nM.
